We go through five molecules from ChEMBL document CHEMBL3259640 (J Med Chem, 2014).

Each structure is given as a SMILES string. pIC50: −log10 of the molar value. In brackets after ≈: the same amount, converted by molar mass.

Data set [1] in a line: Solubility of the compound in phosphate buffered saline containing 1% DMSO at pH 7.4 after 2 hrs by HPLC analysis. Type of data set: physicochemical.
In data set [2] the test system is HeLa. As to the kind of experiment: Antiproliferative activity against human HeLa cells assessed as cell viability after 96 hrs by CellTiter96 assay. In kind it is functional, cell-based.
The subject of data set [3] is K562. As to the kind of experiment: Antiproliferative activity against human K562 cells assessed as cell viability after 96 hrs by CellTiter96 assay. Conditions: K562, 96 h. In kind it is functional, cell-based.
Data set [4] concerns MDA-MB-468. The experiment in a line: Antiproliferative activity against human MDA-MB-468 cells assessed as cell viability after 96 hrs by CellTiter96 assay. Type of data set: functional, cell-based. The following applies: MDA-MB-468, 96 h.
The subject of data set [5] is MDA-MB-231. The experiment in a line: Antiproliferative activity against human MDA-MB-231 cells assessed as cell viability after 96 hrs by CellTiter96 assay. Type of data set: functional, cell-based. Conditions: MDA-MB-231, 96 h.

For orientation: kinetic solubility means solubility judged after dilution from a stock solution rather than from solid. Consider `Cc1cc(C)c(-c2csc(NC(=O)c3ccncc3)n2)c(C)c1`, for which the solubility (kinetic) at 2 h in data set [1] was found to be 3.33 µM (≈ 1.08 µg/mL).

Usually pIC50 stands for the negative decadic logarithm of the IC50, by convention in mol/L. Take `Cc1cc(C)c(-c2csc(NC(=O)c3ccccc3)n2)c(C)c1`: the pIC50 in data set [2] is 5.44; in data set [3] it was 5.49; in data set [4] it was 5.66; in data set [5], 5.49.

As for `Cc1cc(C)c(-c2csc(NC(=O)Cc3ccncc3)n2)c(C)c1`, the pIC50 in data set [2] is 6.21; in data set [3] it was 6.42; in data set [4], 6.52; in data set [5], 6.51.

With `Cc1cc(Oc2ccc3c(c2)OCO3)cc(C)c1-c1csc(NC(=O)c2ccncc2)n1`, the pIC50 in data set [2] is 6.97; in data set [3] it was 7.34; in data set [4], 6.89; in data set [5], 7.17.

`COc1ccc(Oc2cc(C)c(-c3csc(NC(=O)c4ccncc4)n3)c(C)c2)cc1`: the pIC50 in data set [2] is 7.31; in data set [3], 7.46; in data set [4], 7.43; in data set [5] it was 7.49.
